Assay results published in US5464848A, “1,2,4-oxadiazolyl-phenoxyalkylisoxazoles and their use as antiviral agents” (Sterling Winthrop Inc., priority 1993, dated 1995).
≈ marks a conversion by molar mass, not a printed value.

Key:
[1] = tested on: human rhinovirus serotypes, panel B; assay: MIC50/MIC80 over panel B of 10 human rhinovirus serotypes (HeLa cell CPE); type: cell-based; conditions: for MIC80: minimum concentration required to inhibit 80% of the tested serotypes
Protocol: (§1) They are useful in inhibiting virus replication in vitro and are primarily active against picornaviruses, including enteroviruses, echovirus and coxsackie virus, especially rhinoviruses. […] The test procedure used was as follows: The MIC values were determined by an automated tissue culture infectious dose 50% (TCID-50) assay. HeLa cells in monoloyers in 96-well cluster plates were infected with a dilution of virus which had been shown empirically to produce 80% to 100% cytopathic effect (CPE) in 3 days in the absence of drug. The compound to be tested was serially diluted through 10, 2-fold cycles and added to the infected cells. After a 3 day incubation at 33° C. and 2.5% carbon dioxide, the cells were fixed with a 5% solution of glutaraldehyde followed by staining with a 0.25% solution of crystal violet in water. The plates were then rinsed, dried, and the amount of stain remaining in the well (a measure of intact cells) was quantitated with an optical density reader. The MIC was determined to be the concentration of compound which protected 50% of the cells from virus-induced CPE relative to an untreated virus control.
(§2) In the above test procedures, representative compounds of formula I were tested against some the serotypes from either a panel of fifteen human rhinovirus (HRV) serotypes, (noted in the table as panel T) namely, HRV-2, -14, -1A, -1B, -6, -21, -22, -15, -25, -30, -50, -67, -89, -86 and -41 or against some of the serotypes from a panel of 10 human rhinovirus serotypes namely HRV-3, -4, -5, -9, -16, -18, -38, -66, -75 and -61, (noted in the table as panel B) and the MIC value, expressed in micrograms per milliliter ([…]), for each rhinovirus serotype was determined for each virus, example 1e is given as an example of the data. Then MIC50 and MIC80 values, which are the minimum concentrations of the compound required to inhibit 50% and 80%, respectively, of the tested serotypes were determined.
(§3) The following Table gives the test results for representative compounds of the invention. The panel of viruses used in the test appears before the MIC80 and MIC50 figure and the number of serotypes which the compound is tested against (N) is indicated after the MIC80 and MIC50 figure.

[2] = tested on: human rhinovirus (HRV) serotypes, panel T; assay: MIC50/MIC80 over panel T of fifteen human rhinovirus serotypes (HeLa cell CPE); type: cell-based; conditions: for MIC50: minimum concentration required to inhibit 50% of the tested serotypes; for MIC80: minimum concentration required to inhibit 80% of the tested serotypes
Protocol: as §1, §2, §3

Compound | MIC50 ([2]; Human rhinovirus sp., 72 h) | MIC80 [2] | also measured
Cc1cc(CCCOc2c(C)cc(-c3noc(C(F)(F)F)n3)cc2Cl)on1 [Example 63d, 5-{3-[4-(5-Trifluoromethyl-1,2,4-oxadiazol-3-yl)2-chloro-6-methylphenoxy]propyl}-3-methylisoxazole] | – | – | MIC50 ([1]; Human rhinovirus sp., 72 h): 0.304 µg/mL (≈ 0.757 µM); MIC80 ([1]; panel B): 0.13 µg/mL (≈ 0.324 µM)
5-{3-[2,6-Dimethyl-4-(5-difluoromethyl-1,2,4-oxadiazol-3-yl)phenoxy]-propyl}-3-methylisoxazole [Example 49g] | – | – | MIC50 ([1]; panel B, minimum concentration required to inhibit 50% of the tested serotypes): 99 µg/mL; MIC80 ([1]; panel B): 49.859 µg/mL
Cc1cc(CCCOc2c(C)cc(-c3noc(C(F)(F)Cl)n3)cc2C)on1 [Example 54a, 5-{3-[2,6-Dimethyl-4-(5-difluorochloromehyl-1,2,4-oxadiazol-3-yl)phenoxy]-propyl}-3-methylisoxazole] | – | – | MIC50 ([1]; Human rhinovirus sp., 72 h): 49.6 µg/mL (≈ 125 µM); MIC80 ([1]; panel B): 0.016 µg/mL (≈ 0.0402 µM)
Cc1cc(CCCOc2c(F)cc(-c3noc(C(F)(F)F)n3)cc2I)on1 [Example 60e, 5-{3-[2-Fluoro-6-iodo-4-(5-trifluoromethyl-1,2,4-oxadiazol-3-yl)phenoxy]propyl}-3-methylisoxazole] | – | – | MIC50 ([1]; Human rhinovirus sp., 72 h): 99 µg/mL (≈ 199 µM); MIC80 ([1]; panel B): 0.4145 µg/mL (≈ 0.834 µM)
Cc1cc(CCCOc2c(C)cc(-c3noc(=O)[nH]3)cc2C)on1 [Example 8, 5-{3-[2,6-Dimethyl-4-(5-oxo-4,5-dihydro-1,2,4-oxadiazol-3-yl)phenoxy]propyl}-3-methylisoxazole] | 99 µg/mL (≈ 301 µM) | 99 µg/mL (≈ 301 µM) | –
5-{3-[4-(5-Trifluoromethyl-1,2,4-oxadiazol-3-yl)2-cyano-6-chlorophenoxy]-propyl}-3-methylisoxazole [Example 62f] | – | 0.09 µg/mL | MIC50 [2]: 0.213 µg/mL
CCOc1cc(CCCOc2c(C)cc(-c3noc(C4CC4)n3)cc2C)on1 [Example 37, 5-{3-[4-(5-Cyclopropyl-1,2,4-oxadiazol-3-yl)-2,6-dimethyl-phenoxy]propyl}-3-ethoxyisoxazole] | 0.352 µg/mL (≈ 0.918 µM) | 0.91 µg/mL (≈ 2.37 µM) | –
Cc1cc(CCCCCOc2c(Cl)cc(-c3noc(C(F)(F)F)n3)cc2Cl)on1 [Example 31c, 5-{5-[2,6-Dichloro-4-(5-trifluoromethyl-1,2,4-oxadiazol-3-yl)-phenoxy]pentyl}-3-methylisoxazole] | 99 µg/mL (≈ 220 µM) | 0.533 µg/mL (≈ 1.18 µM) | –
Cc1cc(CCCOc2c(C)cc(-c3noc(C(F)F)n3)cc2Cl)on1 [Example 49d, 5-{3-[2,-Methyl-6-Chloro-4-(5-difluoromethyl-1,2,4-oxadiazol-3-yl)phenoxy]-propyl}-3-methylisoxazole] | 99 µg/mL (≈ 258 µM) | 99 µg/mL (≈ 258 µM) | –
Cc1cc(CCCOc2c(C)cc(-c3noc(CI)n3)cc2C)on1 [Example 41, 5-{3-[2,6-Dimethyl-4-(5-(iodomethyl)-1,2,4-oxadiazol-3-yl) -phenoxy]propyl}-3-methylisoxazole] | 99 µg/mL (≈ 218 µM) | 99 µg/mL (≈ 218 µM) | –
Cc1cc(-c2noc(C(F)(F)F)n2)cc(C)c1OCCCc1cc(C(=O)O)no1 [Example 56e] | 99 µg/mL (≈ 241 µM) | 5.304 µg/mL (≈ 12.9 µM) | –
Cc1ccc(S(=O)(=O)OCc2nc(-c3cc(C)c(OCCCc4cc(C)no4)c(C)c3)no2)cc1 [Example 42, 5-{3-[2,6-Dimethyl-4-(5-(4-methylphenylsulfonyloxymethyl) -1,2,4-oxadiazol-3-yl)phenoxy]propyl}-3-methylisoxazole] | 99 µg/mL (≈ 199 µM) | 99 µg/mL (≈ 199 µM) | –
Cc1cc(-c2noc(C(F)(F)F)n2)cc(C)c1OCCCc1cc(C2CC2)no1 [Example 23, 3-Cyclopropyl-5-{3-[2,6-dimethyl-4-(5-trifluoromethyl-1,2,4-oxadiazol-3-yl)phenoxy]propyl}-isoxazole] | 0.625 µg/mL (≈ 1.53 µM) | 0.204 µg/mL (≈ 0.501 µM) | –
Cc1cc(-c2noc(C3CC3)n2)cc(C)c1OCCCc1cc(OCCO)no1 [Example 44, 5-{3-[4-(5-Cyclopropyl-1,2,4-oxadiazol-3-yl)-2,6-dimethylphenoxy]propyl}-3-(2-hydroxyethoxy)isoxazole] | – | 0.385 µg/mL (≈ 0.964 µM) | –
COCc1nc(-c2cc(C)c(OCCCc3cc(C)no3)c(C)c2)no1 [Example 5, 5-{3-[2,6-Dimethyl-4-(5-methoxymethyl-1,2,4-oxadiazol-3-yl)phenoxy]propyl}-3-methylisoxazole] | 0.153 µg/mL (≈ 0.428 µM) | 0.037 µg/mL (≈ 0.104 µM) | –
COc1nc(-c2cc(C)c(OCCCc3cc(C)no3)c(C)c2)no1 [Example 16, 5-{3-[2,6-Dimethyl-4-(5-methoxy-1,2,4-oxadiazol-3-yl)phen-oxy]propyl}-3-methylisoxazole] | 0.135 µg/mL (≈ 0.393 µM) | 0.036 µg/mL (≈ 0.105 µM) | –
CC(=O)OC(C)c1nc(-c2cc(C)c(OCCCc3cc(C)no3)c(C)c2)no1 (stereo not shown) [Example 11, 5-{3-[2,6-Dimethyl-4-(5-(1-methylcarbonyloxy-ethyl)-1,2,4-oxadiazol-3-yl)phenoxy]propyl}-3-methylisoxazole] | 1.98 µg/mL (≈ 4.97 µM) | 0.2485 µg/mL (≈ 0.622 µM) | –
CSc1nc(-c2cc(C)c(OCCCc3cc(C)no3)c(C)c2)no1 [Example 58d, 5-{3-[2,6-dimethyl-4-(5-methylthio-1,2,4-oxadiazol-3-yl)phenoxy]-propyl}-3-methylisoxazole] | 99 µg/mL (≈ 275 µM) | 99 µg/mL (≈ 275 µM) | –
Cc1cc(CCCOc2c(C)cc(-c3noc(C(F)(F)F)n3)cc2F)on1 [Example 60h, 5-{3-[2-Fluoro-6-methyl-4-(5-trifluoromethyl-1,2,4-oxadiazol-3-yl)phenoxy]propyl}-3-methylisoxazole] | – | – | MIC50 ([1]; Human rhinovirus sp., 72 h): 0.328 µg/mL (≈ 0.851 µM); MIC80 ([1]; panel B): 0.0315 µg/mL (≈ 0.0818 µM)
Cc1cc(CCCOc2c(C)cc(-c3noc(C(Cl)(Cl)Cl)n3)cc2C)on1 [Example 12, 5-{3-[2,6-Dimethyl-4-(5-trichloromethyl-1,2,4-oxadiazol-3-yl)-phenoxy]propyl}-3-methylisoxazole] | 2.94 µg/mL (≈ 6.83 µM) | 0.662 µg/mL (≈ 1.54 µM) | –
Cc1cc(CCCOc2c(C)cc(-c3noc(C(N)=O)n3)cc2C)on1 [Example 38, 5-{3-[4-(5-Aminocarbonyl-1,2,4-oxadiazol-3-yl)-2,6-dimethyl-phenoxy]propyl}-3-methylisoxazole] | 99 µg/mL (≈ 278 µM) | 0.839 µg/mL (≈ 2.35 µM) | –
Cc1cc(-c2noc(C(F)(F)F)n2)cc(C)c1OCCCc1onc(C)c1Br [Example 57] | – | – | MIC50 ([1]; Human rhinovirus sp., 72 h): 99 µg/mL (≈ 215 µM); MIC80 ([1]; panel B): 99 µg/mL (≈ 215 µM)
